Like-named read-outs stand apart in the source and are kept apart here.
What was measured:
diabetic (db/db) mice = assay: Blood glucose lowering in diabetic (db/db) mice; type: in vivo, mouse; conditions: for Blood glucose: n = 12
Description: The mice are obese, extremely hyperglycemic and also hyperinsulinemic.
Male db/db mice (8 weeks old) were obtained from Jackson Laboratories and were allowed to acclimate for 1 week before the experiment commenced. A sample of blood was collected from the tail after which plasma glucose was isolated by centrifigation and the glucose concentration was measured in the plasma enzymatically on the COBAS automated clinical analyzer equipped with a glucose kit that utilized hexokinas to quantitate the amount of glucose in a sample (Roche Diagnostic Systems, kit #47382). Mice with the lowest plasma glucose values were removed from the study and the remaining mice were randomized according to their individual plasma glucose values into 3 treatment groups (n=12 per group), control untreated db/db mice, 100 mg/kg/d compound treated db/db mice and 300 mg/kg/d compound treated db/db mice.
Treatment with the compound was carried out for 4 weeks during which time blood glucose levels were measured weekly from the tail using the One Touch II blood glucose meter (Lifescan, Inc). The blood glucose values of mice in the compound treated groups was compared to the blood glucose values of mice from the control untreated group by an analysis of variance followed by Dunett's Comparison Test (one-tailed).

[1] = tested on: streptozotocin-induced diabetic rats; assay: Serum/plasma triglyceride levels in streptozotocin-induced diabetic rats; type: in vivo, rat; conditions: 10 mg/kg/day
Description: Tests are conducted to determine the effect of compounds on serum triglyceride levels in streptozotocin-induced diabetic rats.
Control animals receive citrate buffer.
Two hours after STZ injection, food is returned.
The nondiabetic and diabetic control groups are administered vehicle.

rat aortic ring = assay: Rat aortic ring assay (anti-angiogenic activity); type: cell-based
Description: Final concentration of DMSO in all wells is 1%.
Statistical analysis conducted with Kruskal-Wallis Test and Dunns multiple comparisons

[2] = tested on: STZ treated diabetic minipigs; assay: Wound healing in STZ treated diabetic minipigs; type: in vivo, minipig; conditions: STZ diabetic minipigs with wounds, compared with untreated control STZ diabetic minipigs
Description: STZ treated diabetic minipigs having various wounds are administered the compound of Example 3. These animals are compared with control STZ diabetic minipigs also having wounds but that are not treated with the compound. […] Accordingly, the compounds of the invention are capable of promoting wound healing in diabetic mammals.

[3] = target: T1, human aldehyde reductase (hALR1) (Homo sapiens, UniProt P14550); assay: Inhibition of human aldehyde reductase (hALR1), methods of Ishii et al.; type: biochemical
T1 sequence (P14550 1-325): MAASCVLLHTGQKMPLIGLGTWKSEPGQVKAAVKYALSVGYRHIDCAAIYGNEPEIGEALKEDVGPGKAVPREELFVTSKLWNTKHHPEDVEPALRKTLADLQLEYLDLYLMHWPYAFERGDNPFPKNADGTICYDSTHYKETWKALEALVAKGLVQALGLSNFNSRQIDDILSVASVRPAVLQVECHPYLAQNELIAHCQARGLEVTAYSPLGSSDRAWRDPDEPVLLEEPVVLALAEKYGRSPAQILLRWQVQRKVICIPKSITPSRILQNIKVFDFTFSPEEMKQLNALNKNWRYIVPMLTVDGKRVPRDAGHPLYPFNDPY
Description: In a second assay, a number of the same compounds were tested for their ability to inhibit aldehyde reductase (hALR1), a structurally related enzyme.
(§1) Since high potency of test compounds as inhibitors of aldose reductase is desirable, low hALR2 IC50 values are sought. On the other hand, high potency of test compounds as inhibitors of aldehyde reductase is undesirable, and high ALR1 IC50s values are sought. Accordingly, the hALR1/hALR2 ratio is used to determine the selectivity of the test compounds.

[4] = target: human aldose reductase (hALR2) (Homo sapiens, UniProt P15121); assay: Inhibition of human aldose reductase (hALR2), methods similar to Butera et al.; type: biochemical; conditions: for HALR1/hALR2: ratio of hALR1 IC50 to hALR2 IC50 (selectivity)
Description: Representative compounds of Formula Iwere tested for their potency, selectivity and efficacy as inhibitors of human aldose reductase.
as §1, with “compounds. The importance of this selectivity is Described in Kotani, et al., J. Med. Chem. 40: 684, 1997.” for “compounds.”

SMILES	IC50 [3] [nM]	IC50 [4] [nM]	HALR1/hALR2 [4]	other results
O=C(O)Cn1cc(Cc2nc3c(F)c(F)cc(F)c3s2)c2ccccc21 [Example 3, 3-(4,5,7-Trifluorobenzothiazol-2-yl)methyl-indole-N-acetic Acid]	–	–	–	Blood glucose (diabetic (db/db) mice; 100 mg/kg/d in diet, Week 0, mean ± SD): 323 ± 79 mg/dL; Blood glucose (diabetic (db/db) mice; 100 mg/kg/d in diet, Week 2, mean ± SD): 284 ± 75 mg/dL; Blood glucose (diabetic (db/db) mice; 100 mg/kg/d in diet, Week 3, mean ± SD): 258 ± 60 mg/dL; Blood glucose (diabetic (db/db) mice; 100 mg/kg/d in diet, Week 4, mean ± SD): 303 ± 79 mg/dL; mean percent change in glucose with drug treatment (lowering) (diabetic (db/db) mice; 100 mg/kg/d, after four weeks): 12%; Blood glucose (diabetic (db/db) mice; 300 mg/kg/d in diet, Week 0, mean ± SD): 313 ± 52 mg/dL; Blood glucose (diabetic (db/db) mice; 300 mg/kg/d in diet, Week 2, mean ± SD): 240 ± 85 mg/dL; Blood glucose (diabetic (db/db) mice; 300 mg/kg/d in diet, Week 3, mean ± SD): 197 ± 77 mg/dL; Blood glucose (diabetic (db/db) mice; 300 mg/kg/d in diet, Week 4, mean ± SD): 207 ± 77 mg/dL; mean percent change in glucose with drug treatment (lowering of blood glucose) (diabetic (db/db) mice; 300 mg/kg/d, after four weeks): 40%; Triglyceride lowering compared to diabetic ([1]; STZ diabetic rats, 10 mg/kg/d by gavage): 68%; Plasma triglycerides ([1]; po, 4 h): 149 ± 29 mg/dL; Linear Microvascular Growth (rat aortic ring): 1.97 ± 0.66, n = 5 mm; Linear Microvascular Growth (rat aortic ring; 50 µM): 2.31 ± 0.71, n = 5 mm; Linear Microvascular Growth (rat aortic ring; Prevention (Days 1-6), 50 micromolar, mean ± SD, n = 6): 1.46 ± 0.48, n = 6 mm; degree of wound healing [2]: significant increase in the degree of wound healing
Cc1ccc2c(c1)c(Cc1nc3cc(C(F)(F)F)ccc3s1)cn2CC(=O)O [Example 12, 5-Methyl-3-(5-Trifluoromethylbenzothiazol-2-yl)methyl-indole-N-acetic Acid]	10000	102	98	–
O=C(O)Cn1cc(Cc2cccc([N+](=O)[O-])c2)c2ccccc21 [Example 13, 3-(3-nitrophenyl)methyl-indole-N-acetic Acid]	–	73	178	IC50 ([3]; read-out: HALR1 (IC50)): 13000 nM
O=C(O)Cn1cc(Cc2nc3c(F)c(F)cc(F)c3s2)c2ccc(-c3ccccc3)cc21 [Example 16, 6-phenyl-3-(4,5,7-trifluorobenzothiazol-2-yl)methyl-indole-N-acetic Acid]	6200	25	248	–
O=C(O)Cn1cc(Cc2nc3c(F)c(F)cc(F)c3s2)c2ccc(N3CCOCC3)cc21 [Example 18, 6-morpholino-3-(4,5,7-trifluorobenzothiazol-2-yl) methyl-indole-N-acetic Acid]	–	–	>6,700	IC50 ([3]; read-out: HALR1 (IC50)): > 100000 nM; IC50 ([4]; read-out: hALR2 (IC50)): 15 nM
O=C(O)Cn1cc(Cc2nc3cc(F)ccc3s2)c2ccccc21 [Example 23, 3-[5-Fluorbenzothiazole-2-yl]methyl-indole-N-acetic Acid]	6500	9	720	–
CC(C(=O)O)n1cc(Cc2nc3c(F)c(F)cc(F)c3s2)c2ccccc21 (stereo not shown) [Example 25, 3-(4.5,7-trifluorobenzothiazol-2-yl)methyl-indole-N-2-propionic Acid]	–	160	–	–
O=C(O)CCn1cc(Cc2nc3c(F)c(F)cc(F)c3s2)c2ccccc21 [Example 26, 3-(4-5.7-trifluorobenzothiazol-2-yl)methyl-indole-N-3-propionic Acid]	–	17	–	–
O=C(O)Cn1cc(Cc2nc3cc(C(F)(F)F)ccc3s2)c2ccc(Br)cc21 [Example 27, 6-Bromo-3-(5-trifluoromethylbenzothiazol-2-yl)methyl-indole-N-acetic acid]	< 5000	52	<96	–
COc1ccc2c(Cc3nc4c(F)c(F)cc(F)c4s3)cn(CC(=O)O)c2c1 [Example 28, 6-Methoxy-3-(4,5,7-trifluorobenzothiazol-2-yl)methyl-indole-N-acetic acid]	–	5	–	–
O=C(O)Cn1cc(Cc2nc3c(F)c(F)cc(F)c3s2)c2c(Cl)cccc21 [Example 29, 4-Chloro-3-(4,5,7-trifluorobenzothiazol-2yl) methyl-indole-N-acetic Acid]	–	11	–	–
COc1ccc2c(c1)c(Cc1nc3c(F)c(F)cc(F)c3s1)cn2CC(=O)O [Example 30, 5-Methoxy-3-(4,5,7-trifluorobenzothiazol-2-yl) methyl-indole-N-acetic Acid]	–	7.7	–	–
O=C(O)Cn1cc(Cc2nc3c(F)c(F)cc(F)c3s2)c2cc(Br)ccc21 [Example 31, 5-Bromo-3-(4,5.7-trifluorobenzothiazol-2-yl) methyl-indole-N-acetic acid]	9700	13	746	–
O=C(O)Cn1cc(Cc2nc3ccc(Cl)cc3s2)c2ccccc21 [Example 32, 3-(6-chlorobenzothiazol-2-yl) methyl-indole-N-acetic Acid]	–	660	–	–

— patent US6521659B2, “Compositions containing a substituted indolealkanoic acid and an angiotensin converting enzyme inhibitor” (Institute for Pharmaceutical Discovery, LLC, priority 2000, dated 2003)
